Here are results for ten compounds from patent US20220023181A1, “PEROXIDE-LESS BIOPHOTONIC COMPOSITIONS AND METHODS” (KLOX TECHNOLOGIES LIMITED, priority 2015, published 2022).

The nature of this experiment: Dilution assay with ROS test assay (liposomes + fluorogenic α-tocopherol probe). The note with it: Example 5 first round; illumination 5 or 9 min per sample. As to the method:
For the dilution assay, an amount of a given gel composition is taken and mixed into a volume of PBS in order to dilute the gel. For example, to make a 10 mL solution ten times diluted, a 1 gram sample of the particular gel is mixed into 9 mL of PBS. Thereafter, depending on the make-up of the sample to be tested, an amount of a particular compound, for example urea peroxide (UP) or a particular salt, could be added in order to either boost an amount of the particular compound that was already in the sample to be tested or to test the effect of adding that given compound per se. With respect to adding UP in order to make test samples with various concentrations to be tested in a concomitant series of tests, an initial sample with a high concentration would be prepared from which aliquots would be taken and diluted down with PBS in order to the test samples with the various concentration of UP. In a multi-well plate, the given diluted sample are mixed with 19.1 μL of the liposome solution (to give a final liposome concentration of 15.4 mg/mL in the test sample) in order to provide a 2 mm thickness of the resulting paste-like mixture, this thickness being equivalent to a thickness of gel that would be spread on a patient or used in an in vitro assay. Also present in the sample-liposome mixture is a quantity of the chemical probe that is used in the reactive oxygen species (ROS) test assay (362.9 μL of the of the diluted gel (i.e., the given gel sample that is to be tested) is mixed with 19.1 μL of liposome-probe, as including the chemical probe in the sample-liposome mixture is to ensure that any ROS species will be afforded a maximal opportunity to interact with the probe and thus be detectable as having been generated as a result of any interaction that may occur in the gel composition upon it becoming activated. […] After the illumination is completed, a 100 μL to 300 μL aliquot of the sample-liposome transferred to a 96-well plate for conducting the ROS test (as further described in (iii) below). For the test samples, stock solutions of the samples were made and diluted such that direct comparisons could be made between the samples (e.g., for the measurement of reactive oxygen species).
The ROS test assay utilized in the experimental protocols of the Examples of the present disclosure is that which is described in Krumova et al. “How Lipid Unsaturation, Peroxyl Radical Partitioning, and Chromanol Lipophilic Tail Affect the Antioxidant Activity of a-Tocopherol: direct Visualization via High-Throughput Fluorescence Studies Conducted with Fluorogenic a-Tocopherol Analogues” (J. Am. Chem. Soc. 2012, vol. 134, pages 10102-10113). The assay utilizes highly sensitive fluorogenic α-tocopherol (TOH) analogues that undergo a 30-fold fluorescence intensity enhancement upon their reaction with peroxyl radicals that are generated due to the oxidation of the liposome membrane with ROS species that may be present in the reaction mixture. The assay utilizes a high-throughput microplate reader that relies on the high sensitivity of the TOH probes and provides a quantitative treatment of the temporal evolution of the fluorescence intensity thereby allowing for kinetic information to be obtained under the conditions being analyzed. The TOH analogues are two-segment receptor-reporter probes that consist of a chromanol moiety coupled to the meso position of a BODIPY fluorophore, either by an ester linker (the probe being called H2B-TOH) or via a methylene linker (the probe being called H2B-PMHC). The chromanol moiety quenches the emission of the fluorophore until it is oxidized following reaction with peroxyl radicals. […]

`NC(N)=O.OO` [S 20, urea peroxide]: the ROS amounted to 0.34 µM.
In the case of `NC(N)=O.OO` [S 21, urea peroxide] it was 0.39 µM; in that of `NC(N)=O.OO` [S 22, urea peroxide], 0.49 µM.
In the case of `NC(N)=O.OO` [S 23, urea peroxide] it was 0.46 µM.
Next, `NC(N)=O.OO` [S 24, urea peroxide]: 0.51 µM; `NC(N)=O.OO` [S 25, urea peroxide]: 0.56 µM; `NC(N)=O.OO` [S 26, urea peroxide]: 0.72 µM.
Turning to `NC(N)=O.OO` [S 27, urea peroxide], the ROS came to 0.75 µM.
Next, `NC(N)=O.OO` [S 28, urea peroxide]: 0.87 µM; `NC(N)=O.OO` [S 29, urea peroxide]: 0.86 µM.
